Results as given in US20260262643A1, “HERBICIDAL BENZOXAZINES” (FMC CORPORATION, priority 2022, published 2026).

What was measured:
blackgrass [1] = assay: Test A preemergence; assay type: in vivo, Alopecurus myosuroides
Method in brief: (§1)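 Plants were grown in loam and sand and treated preemergence or postemergence (one- to two-leaf stage, 2–10 cm) with compound in solvent plus surfactant. Response was scored against untreated controls after 10 greenhouse days, where 0 means no effect and 100 complete control.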

corn [2] = assay: Test A preemergence; assay type: in vivo, Zea mays
Method in brief: as §1

foxtail, giant [3] = assay: Test A preemergence; assay type: in vivo, Setaria faberi
Method in brief: as §1

goosegrass [4] = assay: Test A preemergence; assay type: in vivo, Eleusine indica
Method in brief: as §1

kochia [5] = assay: Test A preemergence; assay type: in vivo, Bassia scoparia
Method in brief: as §1

oat, wild [6] = assay: Test A preemergence; assay type: in vivo, Avena fatua
Method in brief: as §1

pigweed, palmer [7] = assay: Test A preemergence; assay type: in vivo, Amaranthus palmeri
Method in brief: as §1

ragweed [8] = assay: Test A preemergence; assay type: in vivo, Ambrosia artemisiifolia
Method in brief: as §1

ryegrass, Italian [9] = assay: Test A preemergence; assay type: in vivo, Lolium multiflorum
Method in brief: as §1

soybean [10] = assay: Test A preemergence; assay type: in vivo, Glycine max
Method in brief: as §1

wheat [11] = assay: Test A preemergence; assay type: in vivo, Triticum aestivum
Method in brief: as §1

blackgrass [12] = assay: Test A postemergence; assay type: in vivo, Alopecurus myosuroides
Method in brief: as §1

corn [13] = assay: Test A postemergence; assay type: in vivo, Zea mays; conditions: postemergence, 10 days, visual injury, 0 to 100 scale (0 no effect, 100 complete control)
Method in brief: as §1

foxtail, giant [14] = assay: Test A postemergence; assay type: in vivo, Setaria faberi; conditions: postemergence, 10 days, visual injury, 0 to 100 scale (0 no effect, 100 complete control)
Method in brief: as §1

goosegrass [15] = assay: Test A postemergence; assay type: in vivo, Eleusine indica; conditions: postemergence, 10 days, visual injury, 0 to 100 scale (0 no effect, 100 complete control)
Method in brief: as §1

kochia [16] = assay: Test A postemergence; assay type: in vivo, Bassia scoparia; conditions: postemergence, 10 days, visual injury, 0 to 100 scale (0 no effect, 100 complete control)
Method in brief: as §1

oat, wild [17] = assay: Test A postemergence; assay type: in vivo, Avena fatua; conditions: 500 g ai/ha, postemergence, 10 days, visual injury, 0 to 100 scale (0 no effect, 100 complete control)
Method in brief: as §1

pigweed, palmer [18] = assay: Test A postemergence; assay type: in vivo, Amaranthus palmeri; conditions: 500 g ai/ha, postemergence, 10 days, visual injury, 0 to 100 scale (0 no effect, 100 complete control)
Method in brief: as §1

ragweed [19] = assay: Test A postemergence; assay type: in vivo, Ambrosia artemisiifolia; conditions: 500 g ai/ha, postemergence, 10 days, visual injury, 0 to 100 scale (0 no effect, 100 complete control)
Method in brief: as §1

ryegrass, Italian [20] = assay: Test A postemergence; assay type: in vivo, Lolium multiflorum; conditions: 500 g ai/ha, postemergence, 10 days, visual injury, 0 to 100 scale (0 no effect, 100 complete control)
Method in brief: as §1

soybean [21] = assay: Test A postemergence; assay type: in vivo, Glycine max; conditions: 500 g ai/ha, postemergence, 10 days, visual injury, 0 to 100 scale (0 no effect, 100 complete control)
Method in brief: as §1

wheat [22] = assay: Test A postemergence; assay type: in vivo, Triticum aestivum; conditions: 500 g ai/ha, postemergence, 10 days, visual injury, 0 to 100 scale (0 no effect, 100 complete control)
Method in brief: as §1

galium = assay: Test A postemergence; assay type: in vivo, Galium aparine; conditions: postemergence, 10 days, visual injury, 0 to 100 scale (0 no effect, 100 complete control)
Method in brief: as §1

horseweed = assay: Test A postemergence; assay type: in vivo, Erigeron canadensis; conditions: postemergence, 10 days, visual injury, 0 to 100 scale (0 no effect, 100 complete control)
Method in brief: as §1

barnyardgrass = assay: Test B flooded paddy test; assay type: in vivo, Echinochloa crus-galli; conditions: 250 g ai/ha, Flood, 13 days, 0 to 100 scale (0 no effect, 100 complete control)
Method in brief: (§2)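 Each species was raised to the 2-leaf stage. At treatment, each pot received floodwater 3 cm deep, with the chemical delivered into the water. Greenhouse holding followed for 13 days, then percent control was estimated visually versus untreated pots.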

ducksalad = assay: Test B flooded paddy test; assay type: in vivo, Heteranthera limosa; conditions: 250 g ai/ha, Flood, 13 days, 0 to 100 scale (0 no effect, 100 complete control)
Method in brief: as §2

rice = assay: Test B flooded paddy test; assay type: in vivo, Oryza sativa; conditions: 250 g ai/ha, Flood, 13 days, 0 to 100 scale (0 no effect, 100 complete control)
Method in brief: as §2

sedge, umbrella = assay: Test B flooded paddy test; assay type: in vivo, Cyperus difformis; conditions: 250 g ai/ha, Flood, 13 days, 0 to 100 scale (0 no effect, 100 complete control)
Method in brief: as §2

[23] = 125 g ai/ha, visual injury after 10 days, 0 to 100 scale, 0 is no effect, 100 is complete control
[24] = 500 g ai/ha, 0 to 100 scale (0 no effect, 100 complete control), 10 days

Cc1ccc(-n2cnc(C3CC3)n2)cc1C(=O)N1C[C@H](C)Oc2c(Cl)cccc21 [Compound 67]
Plant response rating, Blackgrass (blackgrass [1]; [23]): 80 | Plant response rating, Blackgrass (blackgrass [1]; [24]): 90 | Plant response rating, Corn (corn [2]; [23]): 40 | Plant response rating, Corn (corn [2]; [24]): 50 | Plant response rating, Foxtail, Giant (foxtail, giant [3]; [23]): 100 | Plant response rating, Foxtail, Giant (foxtail, giant [3]; [24]): 100 | Plant response rating, Goosegrass (goosegrass [4]; [23]): 100 | Plant response rating, Goosegrass (goosegrass [4]; [24]): 100 | Plant response rating, Kochia (kochia [5]; [23]): 80 | Plant response rating, Kochia (kochia [5]; [24]): 100 | Plant response rating, Oat, Wild (oat, wild [6]; [23]): 30 | Plant response rating, Oat, Wild (oat, wild [6]; [24]): 90 | Plant response rating, Pigweed, Palmer (pigweed, palmer [7]; [23]): 100 | Plant response rating, Pigweed, Palmer (pigweed, palmer [7]; [24]): 100 | Plant response rating, Ragweed (ragweed [8]; [23]): 0 | Plant response rating, Ragweed (ragweed [8]; [24]): 30 | Plant response rating, Ryegrass, Italian (ryegrass, Italian [9]; [23]): 100 | Plant response rating, Ryegrass, Italian (ryegrass, Italian [9]; [24]): 100 | Plant response rating, Soybean (soybean [10]; [23]): 50 | Plant response rating, Soybean (soybean [10]; [24]): 70 | Plant response rating, Wheat (wheat [11]; [23]): 10 | Plant response rating, Wheat (wheat [11]; [24]): 30 | Plant response rating, Blackgrass (blackgrass [12]; 125 g ai/ha, postemergence, 10 days, visual injury, 0 to 100 scale (0 no effect, 100 complete control)): 70 | Plant response rating, Blackgrass (blackgrass [12]; 500 g ai/ha, Postemergence, 0 to 100 scale): 90 | Plant response rating, Corn (corn [13]; 125 g ai/ha): 60 | Plant response rating, Corn (corn [13]; 500 g ai/ha): 60 | Plant response rating, Foxtail, Giant (foxtail, giant [14]; 125 g ai/ha): 50 | Plant response rating, Foxtail, Giant (foxtail, giant [14]; 500 g ai/ha): 90 | Plant response rating, Goosegrass (goosegrass [15]; 125 g ai/ha): 30 | Plant response rating, Goosegrass (goosegrass [15]; 500 g ai/ha): 70 | Plant response rating, Kochia (kochia [16]; 125 g ai/ha): 70 | Plant response rating, Kochia (kochia [16]; 500 g ai/ha): 100 | Plant response rating, Oat, Wild (oat, wild [17]): 60 | Plant response rating, Pigweed, Palmer (pigweed, palmer [18]): 90 | Plant response rating, Ragweed (ragweed [19]): 70 | Plant response rating, Ryegrass, Italian (ryegrass, Italian [20]): 100 | Plant response rating, Soybean (soybean [21]): 100 | Plant response rating, Wheat (wheat [22]): 30 | Plant response rating, Galium (galium; 125 g ai/ha): 100 | Plant response rating, Galium (galium; 500 g ai/ha): 100 | Plant response rating, Horseweed (horseweed; 125 g ai/ha): 30 | Plant response rating, Horseweed (horseweed; 500 g ai/ha): 30 | Plant response rating, Barnyardgrass (barnyardgrass): 0 | Plant response rating, Ducksalad (ducksalad): 30 | Plant response rating, Rice (rice): 0 | Plant response rating, Sedge, Umbrella (sedge, umbrella): 75
